Among the data in US5258286A, “Method of terminating isocitrate dehydrogenase reaction” (Oriental Yeast Co., Ltd., priority 1985, dated 1993) are iCDH activity values, retold here.

The test system of the test is iCDH (isocitrate dehydrogenase). The following applies: EDTA concentration of 5 mM; 0.4 mM MgCl2, 1.6 mM isocitric acid, 1 mM NADP+, 0.1M triethanolamine hydrochloride pH 8.5, 25° C.; FIG. 1. As to the method: A varied amount of EDTA was added to 3 ml of a 0.1M triethanolamine hydrochloride solution (pH 8.5) containing the above-listed ingredients to provide an EDTA concentration of 0 to 10 mM. Each of the resulting mixtures was kept at a temperature of 25° C., and admixed with 20 μl of iCDH of about 3 u/ml, followed by measurement of the iCDH activity based on an increase in absorption at 340 nm by spectrophotometry.

In the case of `O=C(O)CN(CCN(CC(=O)O)CC(=O)O)CC(=O)O` [EDTA], the iCDH activity result is “completely loses its activity”.
